Data: US8084621B2, “3-Pyrrolo[b]cyclohexylene-2-dihydroindolinone derivatives and uses thereof” (Jiangsu Simcere Pharmaceutical R&D Co. Ltd., priority 2006, dated 2011)
pIC50: −log10 of the molar value.

What was measured:
Type in all cases: cell-based
[1] = test system: Human Non-Small Cell Lung Cancer Cell Line (A549); experiment: Tumor cell proliferation assay (MTT), A549; conditions: for inhibition at 10 µM: concentration of 10^−5 mol/L, preliminary screening, 72 hours, read-out: Inhibition rate % A549; for pIC50: secondary screening, 48 hours
In short: A

[2] = test system: Human Gastric Cancer Cell Line (BGC); experiment: Tumor cell proliferation assay (MTT), BGC; conditions: for inhibition at 10 µM: concentration of 10^−5 mol/L, preliminary screening, 72 hours, read-out: Inhibition rate % BGC; for pIC50: secondary screening, 48 hours
[3] = test system: Human Colon Cancer Cell Line (HT-29); experiment: Tumor cell proliferation assay (MTT), HT29; conditions: for inhibition at 10 µM: concentration of 10^−5 mol/L, preliminary screening, 72 hours, read-out: Inhibition rate % HT29; for pIC50: secondary screening, 48 hours
[4] = test system: Human Pancreatic Carcinoma Cells (PANC-1); experiment: Tumor cell proliferation assay (MTT), PANC-1; conditions: for inhibition at 10 µM: concentration of 10^−5 mol/L, preliminary screening, 72 hours, read-out: Inhibition rate % PANC-1; for pIC50: secondary screening, 48 hours
[5] = test system: Human Ovarian Cancer Cell Line (SK-OV-3); experiment: Tumor cell proliferation assay (MTT), SK-OV-3; conditions: for inhibition at 10 µM: concentration of 10^−5 mol/L, preliminary screening, 72 hours, read-out: Inhibition rate % SK-OV-3; for pIC50: secondary screening, 48 hours

SMILES	pIC50 [1]	pIC50 [2]	pIC50 [3]	pIC50 [4]	pIC50 [5]	inhibition at 10 µM [1] [%]	inhibition at 10 µM [2] [%]	inhibition at 10 µM [3] [%]	inhibition at 10 µM [4] [%]	inhibition at 10 µM [5] [%]
CCN(CC)CCNC(=O)c1c(C)[nH]c2c1CCC/C2=C1/C(=O)Nc2ccc(Cl)cc21 [I-3, N-(2-(diethylamino)ethyl)-2-methyl-7-[1,2-dihydro-5-chloro-2-oxo-3H-indol-(Z)-3-ylidene]-4,5,6,7-tetrahydro-1H-indole-3-carboxamide]	5.31	5.69	5.19	5.71	5.52	55.5	78.1	65.1	69.8	86.7
Cc1[nH]c2c(c1C(=O)NCCO)CCC/C2=C1/C(=O)Nc2ccccc21 [I-8, N-(2-hydroxyethyl)-2-methyl-7-[1,2-dihydro-2-oxo-3H-indol-(Z)-3-ylidene]-4,5,6,7-tetrahydro-1H-indole-3-carboxamide]						0.24	47	84.8	5.66	38.1
CCN(CC)CCNC(=O)c1c(C)[nH]c2c1CCC/C2=C1/C(=O)Nc2ccccc21 [I-5, N-(2-(diethylamino)ethyl)-2-methyl-7-[1,2-dihydro-2-oxo-3H-indol-(Z)-3-ylidene]-4,5,6,7-tetrahydro-1H-indole-3-carboxamide]		5.17	6.27			6.71	64	91.5	47.8	77.5
CCN(CC)CC(O)CNC(=O)c1c(C)[nH]c2c1CCC/C2=C1/C(=O)Nc2ccccc21 (stereo not drawn) [I-63, N-(3-(diethylamino)-2-hydroxypropyl)-2-methyl-7-[1,2-dihydro-2-oxo-3H-indol-(Z)-3-ylidene]-4,5,6,7-tetrahydro-1H-indole-3-carboxamide]	5.70	5.73	5.99	6.18	5.87	61.8	80.8	92.7	92.1	94

Now from value to compound, other results behind:

pIC50 [1]	pIC50 [2]	pIC50 [3]	pIC50 [4]	pIC50 [5]	SMILES	inhibition at 10 µM [1] [%]	inhibition at 10 µM [2] [%]	inhibition at 10 µM [3] [%]	inhibition at 10 µM [4] [%]	inhibition at 10 µM [5] [%]
	4.99	6.19			Cc1[nH]c2c(c1C(=O)NCC(O)CN1CCCCC1)CCC/C2=C1/C(=O)Nc2ccccc21 (stereo not drawn) [I-73, N-(2-hydroxy-3-(piperidin-1-yl)propyl)-2-methyl-7-[1,2-dihydro-2-oxo-3H-indol-(Z)-3-ylidene]-4,5,6,7-tetrahydro-1H-indole-3-carboxamide]	2.54	48.8	95.6	48	71.9
5.63	5.85	6.10	5.83	5.81	Cc1[nH]c2c(c1C(=O)NCC(O)CN1CCCC1)CCC/C2=C1/C(=O)Nc2ccc(F)cc21 (stereo not drawn) [I-71, N-(2-hydroxy-3-(pyrrolidin-1-yl)propyl)-2-methyl-7-[1,2-dihydro-5-fluoro-2-oxo-3H-indol-(Z)-3-ylidene]-4,5,6,7-tetrahydro-1H-indole-3-carboxamide]	71.7	82.3	95	97.4	91.7
5.15	5.46	5.08	5.26	5.19	Cc1[nH]c2c(c1C(=O)NCC(O)CN1CCN(C)CC1)CCC/C2=C1/C(=O)Nc2ccc(F)cc21 (stereo not drawn) [I-77, N-[2-hydroxy-3-(4-methylpiperazin-1-yl)propyl]-2-methyl-7-[1,2-dihydro-5-fluoro-2-oxo-3H-indol-(Z)-3-ylidene]-4,5,6,7-tetrahydro-1H-indole-3-carboxamide]	50.8	84.2	74.4	61.9	77.3
5.26	5.12				Cc1[nH]c2c(c1C(=O)NCC(O)CN1CCOCC1)CCC/C2=C1/C(=O)Nc2ccc(F)cc21 (stereo not drawn) [I-68, N-(2-hydroxy-3-morpholinopropyl)-2-methyl-7-[1,2-dihydro-5-fluoro-2-oxo-3H-indol-(Z)-3-ylidene]-4,5,6,7-tetrahydro-1H-indole-3-carboxamide]	61.1	55.4	31.3	34.3	11.1
